Test results reported in US20210386721A1, “SUBSTITUTED PHENYLPROPENYL PYRIDINE DERIVATIVES, THEIR PREPARATION AND PHARMACEUTICAL APPLICATIONS” (SHANGHAI HAIYAN PHARMACEUTICAL TECHNOLOGY CO., LTD., priority 2019, published 2021).

Molecular target: T1, PD-1/PD-L1 (Homo sapiens, UniProt Q9NZQ7)
T1 construct: purchased Cisbio 63ADK000CPDPEB
Experiment: PD-1/PD-L1 binding assay (HTRF, PPI-HTRF)
Conditions: HTRF PD1/PD-L1 binding assay kit; 10 nM Tag1-PD-L1; 25° C.
Experimental: Assay 1 PD-1/PD-L1 Binding Assay
DMSO is from Sigma, Cat No: D5879; 384-well small volume plate (white) is from Greiner, Cat No: 784075; Anti-PD1 blocking antibody (IC50: 10 nM) is from Cisbio, Cat No: 64CUS000C-1a; Anti-PDL1 blocking antibody (IC50: 0.3 nM) is from Cisbio, Cat No: 64CUS000C-1b; HTRF PD1/PD-L1 binding assay kit is from Cisbio, Cat No: 63ADK000CPDPEB.
1. Prepare the compound to be tested at 2x concentration into 1× reaction buffer containing 4% DMSO;
2. Tag1-PD-L1 protein and Tag2-PD1 protein were prepared in 1× reaction buffer at concentrations of […] and 10 nM, respectively. The final reaction concentration of the experiment was 10 nM Tag1-PD-L1 and 2 nM […];
3. anti-Tag1-Eu3+ antibody is prepared in 1x concentration detection buffer at a ratio of 1:100;
4. anti-Tag2-XL665 antibody is prepared in 1x concentration detection buffer at a ratio of 1:25; Experimental steps
1. 5 μL of compounds to be tested (2×) was added;
2. 2.5 ul Tag1-PD-L1 protein and 2.5 ul Tag2-PD1 protein were added respectively, and the total reaction system is 10 ul, and reacted at 25° C. for 15 minutes;
3. 5 ul anti-Tag1-Eu3+ antibody and 5 ul anti-Tag2-XL665 antibody were added respectively, and reacted at 25° C. for 16 hours;
4. The fluorescence microplate reader HTRF reading program was used to read two readings at 665 nm and 620 nm, the ratio of the two wavelengths was used to judge the activity of the compound, and the IC50 of the compound to be tested is calculated by XLFIT5.0 (IDBS).

T1 sequence (Q9NZQ7 19-238 limits assumed): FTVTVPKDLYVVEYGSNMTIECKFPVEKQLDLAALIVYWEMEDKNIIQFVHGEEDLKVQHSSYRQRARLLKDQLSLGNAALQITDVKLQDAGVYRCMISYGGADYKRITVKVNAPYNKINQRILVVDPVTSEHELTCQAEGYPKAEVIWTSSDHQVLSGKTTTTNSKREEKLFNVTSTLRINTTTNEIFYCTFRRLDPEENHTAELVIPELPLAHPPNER

SMILES | IC50
COc1cc(/C=C/c2nccc(-c3cccc(Nc4nccc5cc(CN6CC[C@@H](O)C6)cnc45)c3C)c2C#N)c(C(F)(F)F)cc1CN1CC[C@@H](C(=O)O)C1 [Z-13] | 2 nM
COc1cc(/C=C/c2cccc(-c3cccc(-c4nc5cc(CN6CC[C@@H](O)C6)cc(Cl)c5o4)c3C)c2C)c(C(F)(F)F)cc1CN1CC[C@@H](C(=O)O)C1 [Z-22] | 2 nM
COc1cc(/C=C/c2cccc(-c3cccc(Nc4n[nH]c5ccc(CN6CC[C@@H](O)C6)cc45)c3C)c2C)c(C(F)(F)F)cc1CN1CC[C@@H](C(=O)O)C1 [Z-15, (R)-1-(4-((E)-2-(3′-((5-(((R)-3-hydroxypyrrolidin-1-yl)methyl)-1H-indazole-3-yl)amino)-2,2′-dimethyl-[1,1′-biphenyl]-3-yl)vinyl)-2-methoxy-5-(trifluoromethyl)benzyl)pyrrolidine-3-carboxylic Acid] | 3 nM
Cc1cc(/C=C/c2nccc(-c3cccc(NC(=O)c4ccc(CNCCO)cn4)c3C)c2C#N)c(F)cc1CNCCO [Z-4, (E)-N-(3-(3-cyano-2-(2-fluoro-4-(((2-hydroxyethyl)amino)methyl)-5-methylstyryl)pyridin-4-yl)-2-methylphenyl)-5-(((2-hydroxyethyl)amino)methyl)picolinamide] | < 1 nM
COc1cc(/C=C/c2cccc(-c3cccc(-c4nc5cc(CN6CC[C@@H](O)C6)ccc5o4)c3C)c2C#N)c(C(F)(F)F)cc1CN1CC[C@@H](C(=O)O)C1 [Z-19] | 2 nM
COc1cc(/C=C/c2cccc(-c3cccc(-c4nc5cc(CN6CC[C@@H](C(=O)O)C6)cc(C#N)c5o4)c3F)c2C)c(C(F)(F)F)cc1CN1CC[C@@H](O)C1 [Z-28] | 5 nM
Cc1cc(/C=C/c2nccc(-c3cccc(NC(=O)c4ccc(CN5CC[C@@H](O)C5)cn4)c3C)c2C#N)c(Cl)cc1CN1CC[C@@H](C(=O)O)C1 [Z-68] | 1 nM
COc1cc(/C=C/c2cccc(-c3cccc(Nc4nccc5cc(CN6CC[C@@H](O)C6)c(C(F)(F)F)nc45)c3C)c2C)c(C(F)(F)F)cc1CN1CC[C@@H](C(=O)O)C1 [Z-10, (R)-1-(4-((E)-2-(3′-((3-(((R)-3-hydroxypyrrolidin-1-yl)methyl)-2-(trifluoromethyl)-1,7-naphthyridin-8-yl)amino)-2,2′-dimethyl-[1,1′-biphenyl]-3-yl)vinyl)-2-methoxy-5-(trifluoromethyl)benzyl)pyrrolidine-3-carboxylic Acid] | 3 nM
COc1cc(/C=C/c2cccc(-c3cccc(NC(=O)c4ccc(CN5CC[C@@H](O)C5)c(OC)n4)c3C)c2C)c(C(F)(F)F)cc1CN1CCC[C@H]1C(=O)O [Z-116] | 3 nM
Cc1cc(/C=C/c2nccc(-c3cccc(NC(=O)c4ccc(CN5CCOCC5)cn4)c3C)c2C#N)c(Cl)cc1CN1CC[C@@H](C(=O)O)C1 [Z-70, (R,E)-1-(5-chloro-4-(2-(3-cyano-4-(2-methyl-3-(5-(morpholinomethyl)picolinamido)phenyl)pyridin-2-yl)vinyl)-2-methylbenzyl)pyrrolidine-3-carboxylic Acid] | 3 nM
COc1cc(/C=C/c2cccc(-c3cccc(-c4nc5cc(CN6CC[C@@H](O)C6)cc(C#N)c5o4)c3C)c2C)c(C(F)(F)F)cc1CN1CC[C@@H](O)C1 [Z-37] | 1 nM
Cc1cc(/C=C/c2nccc(-c3cccc(-c4nc5cc(CN6CC[C@@H](C(=O)O)C6)cc(Cl)c5o4)c3C)c2C#N)c(C(F)(F)F)cc1CN1CC[C@@H](O)C1 [Z-48] | 2 nM
Cc1cc(/C=C/c2nccc(-c3cccc(NC(=O)c4ccc(CN5CCCC[C@@H]5C(=O)O)cn4)c3C)c2C#N)c(Cl)cc1CN1CC[C@@H](O)C1 [Z-6, (R)-1-((6-((3-(2-((E)-2-chloro-4-(((R)-3-hydroxypyrrolidin-1-yl)methyl)-5-methylstyryl)-3-cyanopyridin-4-yl)-2-methylphenyl)carbamoyl)pyridin-3-yl)methyl)piperidine-2-carboxylic Acid] | 2 nM
COc1cc(/C=C/c2cccc(-c3cccc(NC(=O)c4nc5c(n4C)CCN(C)C5)c3C)c2C)c(C(F)(F)F)cc1CN1CC[C@@H](C(=O)O)C1 [Z-126, (R,E)-1-(4-(2-(3′-(1,5-dimethyl-4,5,6,7-tetrahydro-1H-imidazo[4,5-c]pyridine-2-carboxamido)-2,2′-dimethyl-[1,1′-biphenyl]-3-yl)vinyl)-2-methoxy-5-(trifluoromethyl)benzyl)pyrrolidine-3-carboxylic Acid] | 1 nM
Cc1cc(/C=C/c2nccc(-c3cccc(NC(=O)c4ccc(CN5CC[C@@H](O)C5)cn4)c3C)c2C#N)c(Cl)cc1CN1CC2(CC(C(=O)O)C2)C1 [Z-78, (R,E)-2-(5-chloro-4-(2-(3-cyano-4-(3-(5-((3-hydroxypyrrolidin-1-yl)methyl)picolinamido)-2-methylphenyl)pyridin-2-yl)vinyl)-2-methylbenzyl)-2-azaspiro[3.3]heptane-6-carboxylic Acid] | 13 nM
COc1cc(/C=C/c2cccc(-c3cccc(NC(=O)c4ccc(CN5CC[C@@H](O)C5)cn4)c3C#N)c2Cl)c(C(F)(F)F)cc1CN1CC[C@@H](C(=O)O)C1 [Z-104] | 1 nM

SMILES | IC50
COc1cc(/C=C/c2cccc(-c3cccc(-c4nc5cc(CN6CC[C@@H](O)C6)ccc5o4)c3C)c2C)c(C(F)(F)F)cc1CN1CC[C@@H](C(=O)O)C1 [Z-16] | 1 nM
COc1cc(/C=C/c2cccc(-c3cccc(-c4nc(OC)c(CNC[C@@H]5CCC(=O)N5)cc4Cl)c3C)c2C)c(C(F)(F)F)cc1CN1CC[C@@H](C(=O)O)C1 [Z-55] | 3 nM
Cc1cc(/C=C/c2nccc(-c3cccc(NC(=O)c4nc5c(n4C)CCN(C4CCOCC4)C5)c3C)c2C#N)c(Cl)cc1CN1CCCC[C@H]1C(=O)O [Z-73, (S, E)-1-(5-chloro-4-(2-(3-cyano-4-(2-methyl-3-(l-methyl-5-(tetrahydro-2H-pyran-4-yl)-4,5,6,7-tetrahydro-1H-imidazo[4,5-c]pyridine-2-carboxamido)phenyl)pyridin-2-yl)vinyl)-2-methylbenzyl) piperidine-2-carboxylic Acid] | 2 nM
COc1cc(/C=C/c2cccc(-c3cccc(NC(=O)c4ccc(CN5CC[C@@H](O)C5)cn4)c3F)c2F)c(C(F)(F)F)cc1CN1CC[C@@H](C(=O)O)C1 [Z-100] | 1 nM
Cc1cc(/C=C/c2nccc(-c3cccc(-c4nc5cc(CN6CC[C@@H](O)C6)cc(Cl)c5o4)c3C)c2C#N)c(Cl)cc1CN1CC[C@@H](C(=O)O)C1 [Z-46] | 1 nM
Cc1cc(/C=C/c2nccc(-c3cccc(NC(=O)c4ccc(CN5CC[C@@H](O)C5)cn4)c3C)c2C#N)c(Cl)cc1CN1CCC(C)(C(=O)O)C1 (stereo partly drawn) [Z-67, 1-(5-chloro-4-((E)-2-(3-cyano-4-(3-(5-(((R)-3-hydroxypyrrolidin-1-yl)methyl)picolinamido)-2-methylphenyl)pyridin-2-yl)vinyl)-2-methylbenzyl)-3-methylpyrrolidine-3-carboxylic Acid] | 1 nM
COc1cc(/C=C/c2cccc(-c3cccc(OC4CCc5cc(CN6CC[C@@H](O)C6)ccc54)c3Cl)c2C)c(C(F)(F)F)cc1CN1CC[C@@H](C(=O)O)C1 (stereo partly drawn) [Z-62, (3R)-1-(4-((E)-2-(2′-chloro-3′-((5-(((R)-3-hydroxypyrrolidin-1-yl)methyl)-2,3-dihydro-1H-inden-1-yl)oxy)-2-methyl-[1,1′-biphenyl]-3-yl)vinyl)-2-methoxy-5-(trifluoromethyl)benzyl)pyrrolidine-3-carboxylic Acid] | 3 nM
COc1cc(/C=C/c2cccc(-c3cccc(-c4nc5cc(CN6CC[C@@H](C(=O)O)C6)ccc5o4)c3C)c2C)c(C(F)(F)F)cc1CN1CC[C@H](O)C1 [Z-31] | 2 nM
COc1cc(/C=C/c2nccc(-c3cccc(NC(=O)c4ccc(CN5CC[C@@H](O)C5)cn4)c3C)c2C#N)cc(OC)c1CN1CCCC[C@H]1C(=O)O [Z-75] | 36 nM
COc1cc(/C=C/c2cccc(-c3cccc(NC(=O)c4cc(OC)c(CN5CC[C@@H](O)C5)cn4)c3C)c2C)c(C(F)(F)F)cc1CN1CC(C(=O)O)C1 [Z-130] | 1 nM
Cc1cc(/C=C/c2nccc(-c3cccc(NC(=O)c4ccc(CN5CCOCC5)cn4)c3C)c2C#N)c(Cl)cc1CN1CCCC[C@H]1C(=O)O [Z-71] | 5 nM
COc1cc(/C=C/c2nccc(-c3cccc(-c4nc5cc(CN6CC[C@@H](C(=O)O)C6)cc(C#N)c5o4)c3C)c2C#N)c(C(F)(F)F)cc1CN1CC[C@@H](O)C1 [Z-50] | 1 nM
Cc1cc(/C=C/c2cccc(-c3cccc(-c4nc5cc(CN6CC[C@@H](O)C6)ccc5o4)c3C)c2C)c(C(F)(F)F)cc1CN1CC[C@@H](C(=O)O)C1 [Z-17] | 1 nM
COc1cc(/C=C/c2cccc(-c3cccc(NC(=O)c4cc(OC)c(CN5CC[C@@H](C(=O)O)C5)cn4)c3C)c2C)c(C(F)(F)F)cc1CN1CC[C@@H](O)C1 [Z-136] | 5 nM
Cc1cc(CN2CCCC[C@H]2C(=O)O)c(C)cc1/C=C/c1nccc(-c2cccc(NC(=O)c3ccc(CN4CC[C@@H](O)C4)cn3)c2C)c1C#N [Z-72] | 2 nM
Cc1cc(/C=C/c2nccc(-c3cccc(-c4nc5cc(CN6CC[C@@H](O)C6)ccc5o4)c3C)c2C#N)c(Cl)cc1CN1CC[C@@H](C(=O)O)C1 [Z-47] | 1 nM
